Holding throughout (assay): biochemical
Test [1] deals with T1, Amaranthus mutant PPO (AMARE) (Amaranthus tuberculatus, UniProt Q0NZW9, F420I).
T1 sequence (Q0NZW9 1-534 F420I): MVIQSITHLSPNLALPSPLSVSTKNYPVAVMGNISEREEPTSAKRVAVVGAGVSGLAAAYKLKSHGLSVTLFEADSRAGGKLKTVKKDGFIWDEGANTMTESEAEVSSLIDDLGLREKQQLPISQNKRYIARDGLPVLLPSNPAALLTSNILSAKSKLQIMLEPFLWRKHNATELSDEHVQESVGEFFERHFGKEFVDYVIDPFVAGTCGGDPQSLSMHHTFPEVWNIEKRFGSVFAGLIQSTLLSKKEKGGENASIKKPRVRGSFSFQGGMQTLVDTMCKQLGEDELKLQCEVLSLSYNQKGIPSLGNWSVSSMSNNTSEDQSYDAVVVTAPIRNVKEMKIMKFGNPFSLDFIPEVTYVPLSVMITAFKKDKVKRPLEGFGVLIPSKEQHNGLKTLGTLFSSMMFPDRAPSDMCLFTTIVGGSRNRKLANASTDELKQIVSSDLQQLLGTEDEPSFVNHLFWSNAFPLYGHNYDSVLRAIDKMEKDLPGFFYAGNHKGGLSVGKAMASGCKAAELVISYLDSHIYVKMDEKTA

In test [2] the target is T2, Amaranthus mutant PPO (AMARE) (Amaranthus tuberculatus, UniProt Q0NZW9, R128I).
T2 sequence (Q0NZW9 1-534 R128I): T1 sequence (Q0NZW9 1-534 F420I) with R128I, I420F

Test [3] deals with T3, Amaranthus mutant PPO (AMARE) (Amaranthus tuberculatus, UniProt Q0NZW9, F420M/R128A).
T3 sequence (Q0NZW9 1-534 R128A/F420M): T1 sequence (Q0NZW9 1-534 F420I) with R128A, I420M

Test [4] concerns the target T4, Amaranthus mutant PPO (AMARE) (Amaranthus tuberculatus, UniProt Q0NZW9, R128A).
T4 sequence (Q0NZW9 1-534 R128A): T1 sequence (Q0NZW9 1-534 F420I) with R128A, I420F

The target of test [5] is T5, Amaranthus mutant PPO (AMARE) (Amaranthus tuberculatus, UniProt Q0NZW9, F420L).
T5 sequence (Q0NZW9 1-534 F420L): T1 sequence (Q0NZW9 1-534 F420I) with I420L

The values below come from patent US10392630B2, “Plants having increased tolerance to herbicides” (BASF AGRO B.V., priority 2013, dated 2019).

Changes are numbered by the printed parent chain.

The term IC50 denotes the point on the concentration scale where inhibition reaches its midpoint. A low value points to higher potency. Consider `CC(C)N(C)S(=O)(=O)NC(=O)c1cc(-n2c(=O)cc(C(F)(F)F)n(C)c2=O)c(F)cc1Cl` [saflufenacil], for which the 50% inhibitory concentration (IC50) in test [1] was 0.919 µM; in test [2], 0.365 µM; in test [3] it was above 10 µM; in test [4], 0.129 µM; in test [5] it was 7.2 µM.
